Results taken from patent US5750547A, “Certain carbanate anti-cancer agents” (priority 1996, dated 1998).
Like-named read-outs stand apart in the source and are kept apart here.

Legend:
LoVo cells = experiment: In vitro cytotoxicity (MTT), LoVo cells; assay type: cell-based; settings: Homo sapiens, 72 h
From the text: (§1) As suitable cell lines there may be mentioned: human adenocarcinoma cells (CRL-229, LoVo), human ovarian carcinoma cells (CRL-1572), human breast cancer cells (MDA-MB-231), normal mouse breast cells (HC-11), mouse leukaemia cells (CCL-46, P388D1), mouse leukaemia (CCL-219, L1210), CRL-1427, human promonocyte U937 and the like. Most of these cell lines are readily available from the American Type Culture Collection. Cells lines: 0-23, 0-23 clone 2.2, LR-73, LR-73 MDR-3, T47D and T47D (GST), having developed resistance to antineoplastic agents through different mechanisms of resistance were also tested in the same manner.
(§2) All cell lines are cultured by a standard procedure in RPMI-1640®mediumsupplemented with 10% fetal bovine serum and 100 ,pg/mL of penicillin and 100 μg/mL of streptomycin.
(§3) In order to evaluate the efficiency of the compounds of formula I, the following experiments are carried out. Cytotoxicity assays are conducted on LoVo, MDA-MB-231 and P388D1 cells. The choice of these cells has been motivated by the fact that they have been specifically identified as the cause of a large number of cancer in North America in the recent years.
(§4) Tumor cells are obtained from the American Type Culture Collection. The cells are suspended at a concentration of 2.5×10^4 cells/mL in a fresh culture media (RPMI-1640, supplemented with 10% fetal calf serum). The well plates (microtitration, 96 wells) are seeded with 100 μL of the cell suspension and incubated 24 hours at 37° C. in a humid atmosphere containing 5% CO2.100 μL of fresh culture media containing different concentrations of drugs to be tested (1 to 25 μM) are added in 8 wells of each plate, and the cells are further incubated for 3 additional days at 37° C. under the same conditions. Each experiment is conducted in triplicate. Cell survival is determined by MTT method, as taught in J. Immunol Methods, 1986, 89, 271 (Denizot et al.) and Int. J. Immunopharm, 1988. 10, 785 (Page et al). The method mainly consisted of a first removal of the culture media and addition to the plates of 20 μL of a MTT solution (5 mg/mL in PBS pH 7.4). The plates are incubated at 37° C. for 4 hours and then 200 μL of dimethylsuffoxide (DMSO) area added into the wells. The plates are agitated for 15 min at room temperature and the absorbance at 540 nm measured on Titertek MC Multiwell® spectrophotometer.
(§5) The method normally used by the American National Cancer Institute for the comparison of effectiveness between drugs is based upon ID50. The ID50 is the concentration at which half of tumor cell population is killed. A comparison of the antitumor agents of the present invention with chlorambucil, which is presently used commercially, is provided to illustrate the superiority of the former.

MDA-MB-231 cells = experiment: In vitro cytotoxicity (MTT), MDA-MB-231 cells; assay type: cell-based, human
From the text: as §1, §2, §3, §4, §5

P388D1 cells = experiment: In vitro cytotoxicity (MTT), P388D1 cells; assay type: cell-based; settings: Mus musculus, P388D1, 72 h
From the text: as §1, §2, §3, §4, §5

primary brain tumors = settings: low doses; cited from earlier work
[1] = cited from earlier work; for biological half-life: approximately
[2] = administered orally or intravenously; cited from earlier work
[3] = Acute toxicity assay, i.p. in mice (survival); assay type: in vivo, BDF1 (C57BL/6×DBA/2) mice
Protocol: Chlorambucil and compound 36 of the present invention were dissolved in DMSO. Each drug solution was mixed with hydrogenated soybean oil in a ratio 1:9 v/v. 100 μL of this mixture was administered i.p. to BDF1 (C57BL/6×DBA/2) mice. For each concentration of drug, varying from 9.25 to 75 mg/kg for chlorambucil or from 9.25 to 296 mg/kg for compound 36, 6 mice were treated. Survival weight and fitness were measured as criteria of toxicity.

L1210 leukaemia cells = experiment: Antineoplastic assay, L1210 leukaemia in BDF1 mice; assay type: in vivo; settings: 10 mg/kg, i.p. daily day 1 to day 9, L1210 in BDF1 mice
Protocol: L1210 leukaemia cells suspended in RPM1-1640 were washed, centrifuged and re-suspended in phosphate buffer saline (PBS) at a concentration of 5×10^5 cells/mL. 200 μL of the suspension were injected i.p. to BDF1 mice. From day 1 to day 9, mice were treated daily according to the NCI procedure taught in Protocols for screening chemical agents and natural products against animal tumors and other biological systems (3rd edition). Cancer Chem. Rep. Part 3 3 (2): 1-103) with i.p. injections of 10 μL of drug solution in DMSO mixed with 90 μL of hydrogenated soybean oil. Chlorambucil was tested at 1, 5 and 10 mg/kg/day and compounds 36 and 4 at 1, 10 and 50 mg/kg/day. For each concentration, six mice were treated. Control groups were treated i.p. with 100 μL of hydrogenated soybean oil containing 10% (v/v) DMSO.
The antineoplastic activity of a drug on mice bearing cancer tumors is evaluated by a value known in the art as the median survival time (T/C %). This value of T/C % is obtained by dividing the median survival time of treated mice by that of untreated mice, and the quotient is multiplied by 100. When the value of T/C % is lower than 85, the drug is considered toxic. On the other hand, a survival time greater than 125 indicates a significant antineoplastic action of the drug on cancer tumors.

[4] = Table 2, 3 days incubation, MTT, read-out: ID50 (LoVo)
[5] = Homo sapiens, MDA-MB-231, 72 h, Table 2, 3 days incubation, MTT, read-out: ID50 (MDA-MB-231)
[6] = Table 2, 3 days incubation, MTT, read-out: ID50 (P388 D1)
[7] = Table 1, 3 days incubation, MTT, read-out: ID50 on tumor cells, LoVo
[8] = Homo sapiens, MDA-MB-231, 72 h, Table 1, 3 days incubation, MTT, read-out: ID50 on tumor cells, MDA-MB-231
[9] = Table 1, 3 days incubation, MTT, read-out: ID50 on tumor cells, P388D1

Compound	IC50 (LoVo cells; [4]) [µM]	IC50 (MDA-MB-231 cells; [5]) [µM]	IC50 (P388D1 cells; [6]) [µM]	also measured
CCCCCCOc1ccc(NC(=O)NCCCl)cc1 [Compound 16]	16	22	17	
O=NN(CCCl)C(=O)NCCCl [Carmustine]				activity in primary brain tumors (primary brain tumors): active in primary brain tumors; biological half-life [1]: 1-1.5 h; percentage bound to plasma proteins [1]: over 90%; side effects [2]: nausea, vomiting, alopecia, lymphopenia, leucopenia and bone marrow depression
O=C(NCCCl)Nc1ccc(CCO)cc1 [Compound 36]				Acute toxicity, survival ([3]; 9.25 mg/kg i.p.): 6/6; Acute toxicity, survival ([3]; 18.5 mg/kg i.p.): 6/6; Acute toxicity, survival ([3]; 37 mg/kg i.p.): 6/6; Acute toxicity, survival ([3]; 75 mg/kg i.p.): 6/6; Acute toxicity, survival ([3]; 111 mg/kg i.p.): 6/6; Acute toxicity, survival ([3]; 148 mg/kg i.p.): 6/6; Acute toxicity, survival ([3]; 222 mg/kg i.p.): 6/6; Acute toxicity, survival ([3]; 296 mg/kg i.p.): 6/6; median survival time (T/C %) (L1210 leukaemia cells): 140%
O=C(NCCCl)Nc1ccc2cn[nH]c2c1 [VII, 6-[3-(2-chloroethyl)ureido]indazole]				IC50 (LoVo cells; [7]): 31 µM; IC50 (MDA-MB-231 cells; [8]): 29 µM; IC50 (P388D1 cells; [9]): 76 µM
CC(C)c1ccc(NC(=O)NCCCl)cc1 [Compound 4]	1.3	2	2.2	median survival time (T/C %) (L1210 leukaemia cells): 164%
CCCCCCc1ccc(NC(=O)NCCCl)cc1 [Compound 7]	6.2	7.3	7.9	
CCc1cccc(NC(=O)NCCCl)c1 [Compound 2]	3.5	7.8	7	
O=C(NCCCl)Nc1ccc(C2CCCCC2)cc1 [Compound 8]	22	29	22	
O=C(NCCCl)Oc1ccc([N+](=O)[O-])cc1 [Compound 40, 4-nitro phenyl N-(2chloroethyl) carbamate]	7	10	8.2	
Cc1ccc(OC(=O)NCCCl)cc1C [Compound 50]	30	40	40	
CCCCCCCc1ccc(NC(=O)NCCCl)cc1 [Compound 9]	15	16	18	
CCCCCCCCc1ccc(NC(=O)NCCCl)cc1 [Compound 10]	29	33	32	
CCSc1ccc(NC(=O)NCCCl)cc1 [Compound 39]		17		
CCC(C)c1ccc(NC(=O)NCCCl)cc1 (stereo not shown) [Compound 5]	1.6	2.2	2.4	
O=C(NCCCl)Nc1ccc2c(c1)Cc1ccccc1-2 [V, 2-[3-(2chloroethyl)ureido]fluorene]				IC50 (LoVo cells; [7]): 5 µM; IC50 (MDA-MB-231 cells; [8]): 4 µM; IC50 (P388D1 cells; [9]): 4 µM
CCOc1cccc(NC(=O)NCCCl)c1 [Compound 14]	35	33	42	
O=C(O)CCCc1ccc(N(CCCl)CCCl)cc1 [Chlorambucil, reference compound]				IC50 (LoVo cells; read-out: ID50 (LoVo)): 9 µM; IC50 (MDA-MB-231 cells; Homo sapiens, MDA-MB-231, 72 h, read-out: ID50 (MDA-MB-231)): 11 µM; IC50 (P388D1 cells; read-out: ID50 (P388 D1)): 6.7 µM; Acute toxicity, survival ([3]; 9.25 mg/kg i.p.): 6/6; Acute toxicity, survival ([3]; 18.5 mg/kg i.p.): 6/6; Acute toxicity, survival ([3]; 37 mg/kg i.p.): 6/6; Acute toxicity, survival ([3]; 75 mg/kg i.p.): 0/6; median survival time (T/C %) (L1210 leukaemia cells): 160%; biological half-life [1]: 1-1.5 h; percentage bound to plasma proteins [1]: over 90%; side effects [2]: nausea, vomiting, alopecia, lymphopenia, leucopenia and bone marrow depression
CCCc1ccc(NC(=O)NCCCl)cc1 [Compound 3]	9.8	12	11	
CCCCCOc1ccc(NC(=O)NCCCl)cc1 [Compound 15]	16	22	28	
5-[3-(2-chloroethyl)ureido] 4,6-dimethyl pyridine [VIII]				IC50 (MDA-MB-231 cells; Table 1, 3 days incubation, MTT, read-out: ID50 on tumor cells, MDA-MB-231): 50 µM
CCCCCc1ccc(NC(=O)NCCCl)cc1 [Compound 6]	5.5	6	7	
O=C(NCCCl)Oc1cccc(Cl)c1 [Compound 63]	7.5	8.5	5	
Cc1cc(OC(=O)NCCCl)ccc1[N+](=O)[O-] [Compound 47]	7.2	7.5	8	
O=C(NCCCl)Nc1ccc2[nH]ccc2c1 [IX, 5-[3-(2-chloroethyl)ureido]indole]				IC50 (MDA-MB-231 cells; [8]): 70 µM
O=C(NCCCl)Nc1ccc2c(c1)CCC2 [VI, 5-[3-(2-chloroethyl)ureido]indane]				IC50 (LoVo cells; [7]): 5 µM; IC50 (MDA-MB-231 cells; [8]): 7 µM; IC50 (P388D1 cells; [9]): 7 µM
